Experimental data taken from patent US20100136034A1, “NOVEL MULTIMERIC MOLECULES, A PROCESS FOR PREPARING THE SAME AND THE USE THEREOF FOR MANUFACTURING MEDICINAL DRUGS” (CENTRE NATIONAL DE LA RECHERCHE SCIENTIFIQUE, priority 2007, published 2010).
Non-standard residues stand in square brackets, D forms with d. No end group written: not given here. Ahx = NCCCCCC(=O)O

Legend:
murine spleen B cells = test: Spleen B cell proliferation ([3H]-thymidine uptake); format: cell-based, BALB/c mice; details: ligand alone, without anti-CD40 antibody 3/23; 72 hours; FIG. 5B
Experimental: Spleens were surgically removed from BALB/c mice aged from 5 to 12 weeks. Spleen B cells were prepared by positive selection using magnetic beads coated with monoclonal anti-CD19 antibodies (MACS, Milteny biotech, Germany). This fraction contains over 95% of B220^+ cells. B cells (3×10^6/ml) were next cultured in RPMI 1640 medium supplemented with 10% complement depleted FBS, gentamycin (10 μg/ml), 25 mM HEPES and […] β-mercaptoethanol in presence of CD40L analogs. Cells were pulsed with 1 μCi/well of tritiated thymidine (ICN, Irvine, Calif.) for the last 20 hours of culturing and the uptake of [^3H]-thymidine as expressed in cpm was measured after 72 hours using a Matrix 9600 model direct 13 counter (Packard, Meriden, Conn.). Results (FIG. 5B) are expressed as a stimulation index corresponding to cpm obtained for cultures with CD40L analogs divided by cpm obtained for cultures without CD40L analogs. Mice used in this study were raised in our animal housing facilities which are licensed by the french veterinary administration under number D-67-482-2.

[1] = system: Burkitt's lymphoma RAJI cells; test: Induction of apoptosis in Burkitt's lymphoma RAJI cells (drop in mitochondrial transmembrane potential, DiOC6(3), flow cytometry); format: cell-based; details: 16 hours incubation with CD40L analog, FIG. 5A
Experimental: Burkitt's lymphoma (RAJI) was cultured in RPMI 1640 medium (Cambrex Bioscience, Verviers, Belgium) supplemented with 10% decomplemented foetal calf serum (FBS) and gentamycin (10 μg/ml). For assaying apoptosis, cells (1×10^6/ml) were incubated at 37° C. in 96-well plates, at the specified concentrations of CD40L analogs, in a final volume of 200 μl. After incubation for 16 hours, cell apoptosis was measured as described herein below.
To this end, cells were pulsed with DiOC6(3) (Interchim, Montluçon, France)) at a final concentration of 40 nM for the last 45 minutes of culturing.
Cells were subsequently washed, resuspended in 300 μl of PBS and analyzed by flow cytometry. Results (FIG. 5A) are expressed in percentage of specific apoptosis according the following formula: % of specific apoptosis=[(% of dead treated cells−% of dead control cells)×100]/(100−% de dead control cells).
Cells were analyzed by a FACSCalibur® instrument. At least 25000 pulse is events were acquired for each experiment using the CellQuest 3.3 software (Becton Dickinson, Pont de Claix, France) and data were analyzed using the WinMDI 2.8 software (Joseph Trotter, Scripps Research Institute, http://facs.scripps.edu/software.html).

Substance: L41: dimeric ligand by click chemistry: dimerized macrocycle IV.25 coupled to pentapeptide P1 (Lys-Gly-Tyr-Tyr-Ahx), deprotected (peptide KGYY[Ahx]; chain AKKKAK; also: dimerized macrocycle IV.25 (cyclised hexapeptide) joined by click chemistry (triazole) to pentapeptide P1 (Lys-Gly-Tyr-Tyr-Ahx), D-residues and non-natural residues not placed)
- B cell proliferation (stimulation index, [3H]-thymidine uptake) (murine spleen B cells): induces alone murine spleen B cell proliferation
- percentage of specific apoptosis [1]: induces a Burkitt lymphoma (RAJI) specific apoptosis percentage
